The target in assay [1] is T1, human 5-HT1A receptor (Homo sapiens, UniProt P08908).
T1 construct: expressed in transfected cells; host or cells: CHO-K1
T1 sequence (P08908 1-422): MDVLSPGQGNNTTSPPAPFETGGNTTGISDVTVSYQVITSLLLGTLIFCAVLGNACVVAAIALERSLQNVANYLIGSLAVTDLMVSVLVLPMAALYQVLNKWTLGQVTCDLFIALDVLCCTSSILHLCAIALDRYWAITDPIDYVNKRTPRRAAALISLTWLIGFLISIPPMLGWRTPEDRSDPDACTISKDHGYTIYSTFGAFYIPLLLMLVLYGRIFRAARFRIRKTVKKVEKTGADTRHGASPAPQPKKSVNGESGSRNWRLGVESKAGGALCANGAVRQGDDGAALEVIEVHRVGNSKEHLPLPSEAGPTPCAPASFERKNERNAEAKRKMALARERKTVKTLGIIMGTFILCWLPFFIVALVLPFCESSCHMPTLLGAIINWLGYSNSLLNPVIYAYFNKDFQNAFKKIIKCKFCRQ
Description: 5-HT1A receptor binding ([3H]8-hydroxy-DPAT displacement, CHO-K1 membranes). To be noted: for 5-HT1A receptor affinity/displacement in words: radioligand displacement assessment at 91 nM; for inhibition at 0.091 µM: single point displacement of [3H]-8-hydroxy-DPAT, 91 nM test compound, CHO-K1, ± S.E.M., n ≥ 3. On the procedure: Because the 5-HT1A receptor is a commonly observed off-site binding site for benzamide N-phenylpiperazine ligands, compounds were simultaneously screened for binding of our compounds at the human 5-HT1A receptor expressed in CHO-K1 cells, using the radioligand [^3H]-8-hydroxy-DPAT (8-OH-DPAT) (Table 2). Based upon the analysis of the displacement assay shown in Table 2, the orthosteric compounds 3c–f appeared to bind with low affinity at human 5-HT1A receptors.
10 μg of membranes from CHO-K1 cells expressing the human 5-HT1A receptor were suspended in 50 mM Tris-HCl, 10 mM MgSO4, 0.5 mM EDTA, and 0.1% (w/v) ascorbic acid, pH 7.4 and test ligands (91 nM for single point radioligand displacement assay and 1 nM to 1 μM for full competition assay) were incubated with 0.25 nM [^3H]8-hydroxy-DPAT (PerkinElmer, Boston, MA, USA) for 60 min at room temperature. The nonspecific binding was determined using 10 μM metergoline (Sigma, St. Louis, MO, USA). After incubation, the bound ligands were filtered using an M-24 Brandel filtration system (Brandel, Gaithersburg, MD, USA), collected on glass fiber papers (Whatman grade 934-AH, GE Healthcare Bio-Sciences, Pittsburgh, PA, USA), and the radioactivity was quantitated using a MicroBeta2 Microplate scintillation counter 2450 (PerkinElmer, Boston, MA, USA).
(In a radioligand displacement assay an active substance lowers the binding of a labelled ligand.)

Assay [2] addresses T2, D3 dopamine receptor (Homo sapiens, UniProt P35462). The experiment in a line: β-arrestin binding assay (DiscoverX PathHunter, DRD3-U2OS cells). The format is cell-based. To be noted: human D3, test compound at 10x Ki, normalized to quinpirole. Set-up: host or cells: U2OS (PathHunter eXpress DRD3-U2OS). On the procedure: (§1) Quinpirole was used as a reference prototypic full agonist and haloperidol was used as a reference prototypic antagonist.
The β-arrestin binding assay was performed using a DiscoverX Pathhunter® kit according to the manufacturer’s instructions. PathHunter® eXpress β-Arrestin GPCR cells are engineered to co-express the ProLink™ (PK) tagged GPCR and the Enzyme Acceptor (EA) tagged β-Arrestin. Activation of the GPCR-PK induces β-Arrestin-EA recruitment, forcing complementation of the two β-galactosidase enzyme fragments (EA and PK). The resulting functional enzyme hydrolyzes substrate to generate a chemiluminescent signal. DRD3-U2OS cells were seeded according to kit instructions into white plastic 96-well plates (provided with the kit) 48 h prior to the assay in a volume of 100 μL/well using the Cell Plating Reagent (CPR) provided. Vehicle or test drug, diluted in CPR, was added to the designated wells and incubated for 90 min at 37 °C. Working detection solution (a component provided with the kit) was added to the wells and incubated for 1 h in the dark at room temperature. As discussed for the cyclase assay, an Enspire Alpha 2390 Multilabel Reader/Luminometer was used to detect the luminescent signal with haloperidol and quinpirole used as reference antagonist and full agonist, respectively.
(§2) Figure 3 Comparison of the Efficacy of Phenylthiophene Analogs for Adenylyl Cyclase Inhibition and β-Arrestin Binding at Human D3 Dopamine Receptors. […] Values were normalized to reference full agonist quinpirole (10,000 nM).

For assay [3], the target named is T2, D3 dopamine receptor. The experiment in a line: Forskolin-dependent adenylyl cyclase inhibition assay (cAMP-Glo, HEK cells). Also on record: expressed in transfected cells; host or cells: HEK293. Particulars: human D3, test compound at 10x Ki, normalized to quinpirole 10,000 nM. Type of assay: cell-based. How it is done:
as §1
The forskolin-dependent adenylyl cyclase inhibition assay was performed using a cAMP-Glo Assay kit (Promega). For this assay cAMP stimulates protein kinase A (PKA) activity, which leads to a decrease in ATP levels and a decrease in the luciferase-coupled production of light. This is a 96 well plate assay using HEK cells stably transfected to express the human D3 dopamine receptor (10,000 cells/well/0.1 mL complete media). After removing media and rinsing with phosphate buffered saline, cells were incubated with 20 μL of forskolin (6000 nM) and test compound or vehicle. […] After cells, test compound (or vehicle) and forskolin (or vehicle) were incubated for 15 min, cells were lysed using 20 μL lysis buffer (provided with the kit) and mixed for 15 min at room temperature. A cAMP Detection Solution (40 μL) was added to each well, gently mixed for 60 s and incubated at room temperature for 20 min. The Kinase-Glo Solution was added (40 μL) to terminate the PKA reaction. The reaction mixture was gently mixed for 60 s and then incubated at room temperature for 10 min. The remaining ATP was detected via a luciferase reaction. The plates were read using an Enspire Alpha 2390 Multilabel Reader/Luminometer. Haloperidol (200 nM) and quinpirole (10,000 nM) was used as a prototypic reference antagonist and full agonist, respectively.
as §2

In assay [4] the target is T2, D3 dopamine receptor. Particulars: for D2:D3 Selectivity: ratio of D2 and D3 Ki values (Table 1).
Description: Competitive radioligand binding techniques were used to determine the Ki values of ligands at human D2 and D3 dopamine receptors expressed in stably transfected HEK cells (Table 1).
The final radioligand concentration was approximately equal to the Kd value for the binding of the radioligand. […] For each competition curve, triplicates were performed using two concentrations of inhibitor per decade over five orders of magnitude.
The competition curves were modeled for a single binding site using Bs = Bo − ((Bo + L)/(IC50 + L)) where Bs is the amount of ligand bound to receptor and Bo is the amount of ligand bound to receptor in the absence of competitive inhibitor. L is the concentration of the competitive inhibitor. […] The values for Bs and Bo were constrained using experimentally derived values. The IC50 values were converted to equilibrium dissociation constants (Ki) [50, 51]. Mean Ki values ± S.E.M. are reported for at least three independent experiments.
The target of assay [5] is human D3 dopamine receptor. Particulars: read-out: Ki D3 (hD3), previously published; Figure 1 and text; cited from earlier work.
Assay [6] addresses T2, D3 dopamine receptor. Set-up: method as in PMID 15582454. Particulars: cited from earlier work.

Values joined by “and” are separate entries in the source; they are usually repeats but may differ in a detail not shown here. Equal entries are not always repeated. “Also recorded” adds a separate entry of the source. Where two headings read alike, the source gives them in different places.

A word on the inhibition: it is the relative decrease from the control value, in per cent. A word on the Ki: it is the equilibrium dissociation constant of an inhibitor or competing ligand from its target.

T2 sequence (P35462 whole entry, the tested form may be a part): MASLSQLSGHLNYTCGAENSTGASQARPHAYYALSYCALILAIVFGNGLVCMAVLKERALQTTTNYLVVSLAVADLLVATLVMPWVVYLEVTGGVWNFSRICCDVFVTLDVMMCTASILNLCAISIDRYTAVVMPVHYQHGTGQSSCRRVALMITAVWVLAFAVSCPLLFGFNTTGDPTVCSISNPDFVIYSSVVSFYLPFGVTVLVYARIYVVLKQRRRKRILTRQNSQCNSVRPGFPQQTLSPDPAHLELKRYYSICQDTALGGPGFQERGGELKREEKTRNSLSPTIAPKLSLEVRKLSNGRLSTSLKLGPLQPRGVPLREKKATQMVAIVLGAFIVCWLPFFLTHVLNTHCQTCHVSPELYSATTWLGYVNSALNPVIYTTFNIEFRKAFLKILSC

Regarding `O=C(NCCCCN1CCN(c2cccc(F)c2)CC1)c1ccc(-c2ccsc2)cc1` [Compound 6b], in assay [1], the “5-HT1A receptor affinity/displacement in words” value was “substantial affinity” and the inhibition at 0.091 µM worked out at 74.7 ± 1.9%. Besides, in assay [2], the “efficacy in β-arrestin binding assay” value is on record as “weak partial agonists”. The “efficacy in adenylyl cyclase inhibition assay” value in assay [3] is reported as “weak partial agonists”. For the same compound, in assay [4], the inhibition constant Ki was found to be 7.9 ± 1.4 nM and the “D2:D3 Selectivity” value is 296.
On to `CCCCN1CCN(c2cc(C#N)ccc2F)CC1` [Compound 3d], for which the inhibition at 0.091 µM in assay [1] was -18 ± 11.1%. In assay [4], the Ki turned out to be 726 ± 101 nM and the “D2:D3 Selectivity” value is 7.5.
For `CCCCN1CCN(c2ccc(F)cc2OCCF)CC1` [Compound 3f], in that order: 1.7 ± 21.7%, 351 ± 42.1 nM and 1.0.
With `O=C(NCCCCN1CCN(c2cccc(Cl)c2Cl)CC1)c1ccc(-c2ccccn2)cc1` [PG 01037], in assay [5], the Ki was 0.7 nM.
For `N#Cc1ccc(F)c(N2CCN(CCCCNC(=O)c3ccc(-c4ccsc4)cc3)CC2)c1` [Compound 6d], the inhibition at 0.091 µM in assay [1] was 2.5 ± 3.5%. Besides, the “efficacy in β-arrestin binding assay” value in assay [2] was “antagonists”. Besides, the “efficacy in adenylyl cyclase inhibition assay” value in assay [3] was “antagonists”. In assay [4], the affinity, expressed as Ki, was 15.5 ± 1.3 nM and the “D2:D3 Selectivity” value came to 290.
For `O=C(NCCCCN1CCN(c2ccc(F)cc2OCCF)CC1)c1ccc(-c2ccsc2)cc1` [Compound 6f], the inhibition at 0.091 µM in assay [1] stood at 16.9 ± 24.4%. For the same compound, in assay [4], the Ki came out at 6.1 ± 0.2 nM and the “D2:D3 Selectivity” value is on record as 67.4.
`N#Cc1ccc(F)c(N2CCN(CCCCNC(=O)c3ccc(-c4cscn4)cc3)CC2)c1` [Compound 7d]: the inhibition at 0.091 µM in assay [1] was -5.6 ± 18.3%. In assay [4], the inhibitory constant (Ki) turned out to be 28.1 ± 0.8 nM and the “D2:D3 Selectivity” value came out at 274.
For `O=C(NCCCCN1CCN(c2cccc(Cl)c2Cl)CC1)c1ccc2c(c1)Cc1ccccc1-2` [NGB 2904], the Ki in assay [5] is 2 nM.
Take `CCCCN1CCN(c2ccc(F)cc2)CC1` [Compound 3c]: the inhibition at 0.091 µM in assay [1] was found to be 5.1 ± 11.2%. For the same compound, in assay [4], the inhibitory constant (Ki) amounted to 1180 ± 240 nM and the “D2:D3 Selectivity” value was 2.6.
In the case of `O=C(NCCCCN1CCN(c2ccccc2F)CC1)c1ccc(-c2cscn2)cc1` [Compound 7a], the Ki in assay [1] (full competition curve, [3H]-8-hydroxy-DPAT, at least three experiments, read-out: Ki at 5-HT1A receptor) worked out at 14.3 ± 7.1 nM. For the same compound, in assay [1], the “5-HT1A receptor affinity/displacement in words” value was “substantial affinity; also recorded: increased affinity” and the inhibition at 0.091 µM came to 65.8 ± 5%. Further, in assay [4], the Ki amounted to 2.5 ± 0.22 nM and the “D2:D3 Selectivity” value worked out at 190.
Turning to `CCCCN1CCN(c2cccc(F)c2)CC1` [Compound 3b], in assay [1], the “5-HT1A receptor affinity/displacement in words” value was “partially displace” and the inhibition at 0.091 µM was found to be 36.1 ± 2.1%. Besides, in assay [4], the Ki was 1000 ± 118 nM and the “D2:D3 Selectivity” value was 2.5.
For `CCCCN1CCN(c2ccccc2F)CC1` [Compound 3a], in assay [1], the affinity corresponds to a Ki of 67.8 ± 4.6 nM, the “5-HT1A receptor affinity/displacement in words” value is on record as “partially displace; also recorded: moderate affinity” and the inhibition at 0.091 µM turned out to be 20.3 ± 16.2%. Also, in assay [4], the Ki amounted to 96.2 ± 16.9 nM and the “D2:D3 Selectivity” value is reported as 4.0.
`O=C(NCCCCN1CCN(c2cccc(F)c2)CC1)c1ccc(-c2cscn2)cc1` [Compound 7b]: in assay [1], the “5-HT1A receptor affinity/displacement in words” value is on record as “substantial affinity” and the inhibition at 0.091 µM came out at 74.1 ± 5.3%. Moreover, in assay [4], the Ki stood at 24 ± 5.5 nM and the “D2:D3 Selectivity” value was 165.
Turning to `O=C(NCCCCN1CCN(c2ccc(F)cc2)CC1)c1ccc(-c2cscn2)cc1` [Compound 7c], the inhibition at 0.091 µM in assay [1] turned out to be 12.2 ± 3.1%. In assay [4], the Ki came to 28.6 ± 2.1 nM and the “D2:D3 Selectivity” value is given as 140.
Regarding `O=C(NCCCCN1CCN(c2ccc(F)cc2)CC1)c1ccc(-c2ccsc2)cc1` [Compound 6c], the inhibition at 0.091 µM in assay [1] is -7.7 ± 23.5%. In assay [2], the “efficacy in β-arrestin binding assay” value was “very weak partial agonist/antagonist”. Also, the “efficacy in adenylyl cyclase inhibition assay” value in assay [3] is given as “weak partial agonist”. In assay [4], the Ki is 12.4 ± 1.6 nM and the “D2:D3 Selectivity” value is on record as 579.
In the case of `O=C(NCCCCN1CCN(c2ccc(C(F)(F)F)cc2F)CC1)c1ccc(-c2ccsc2)cc1` [Compound 6e], the inhibition at 0.091 µM in assay [1] worked out at 6.1 ± 6.8%. Moreover, in assay [4], the affinity, expressed as Ki, was 43.3 ± 9.2 nM and the “D2:D3 Selectivity” value is recorded as more than 1800.
On to `O=C(NCCCCN1CCN(c2ccc(C(F)(F)F)cc2F)CC1)c1ccc(-c2cscn2)cc1` [Compound 7e], for which, in assay [1], the inhibition at 0.091 µM was 7.6 ± 6.5%. Besides, the “efficacy in β-arrestin binding assay” value in assay [2] is listed as “antagonists”. The “efficacy in adenylyl cyclase inhibition assay” value in assay [3] was “antagonists”. Besides, the affinity in assay [4], expressed as Ki, was 30.9 ± 2.6 nM.
Regarding `O=C(NCCCCN1CCN(c2ccccc2OCCF)CC1)c1ccc(-c2ccsc2)cc1` [LS-3-134], in assay [6], the “% of maximum efficacy, adenylyl cyclase inhibition assay” value is 35% and 34.4 ± 1.7%.
For `CCCCN1CCN(c2ccc(C(F)(F)F)cc2F)CC1` [Compound 3e], in assay [1], the inhibition at 0.091 µM is -11.6 ± 15.4%. Besides, in assay [4], affinity was put at a Ki of 1410 ± 59.1 nM and the “D2:D3 Selectivity” value was 5.3.
With `O=C(NCCCCN1CCN(c2ccc(F)cc2OCCF)CC1)c1ccc(-c2cscn2)cc1` [Compound 7f], in assay [1], the “5-HT1A receptor affinity/displacement in words” value is reported as “substantial affinity” and the inhibition at 0.091 µM came to 37.1 ± 24.4%. In assay [4], the affinity, expressed as Ki, was 4.8 ± 0.28 nM and the “D2:D3 Selectivity” value was determined as 72.9.

(Values after PMC8198181, “Evaluation of Substituted N-Phenylpiperazine Analogs as D3 vs. D2 Dopamine Receptor Subtype Selective Ligands” (Molecules, 2021).)
